Measured values taken from patent publication US4450155A, “Analgesic dipeptide amides and method of use and compositions thereof” (Sterling Drug Inc., priority 1982, dated 1984).
Read-outs that look alike come from different tables or passages of the source. Where a SMILES comes first, the peptide text is derived from it. The star is where a group is joined. NHPhenethyl = c1ccc(CCN*)cc1

Legend:
[1] = test system: guinea pig ileum longitudinal muscle with adhering myenteric plexus; assay: Guinea pig ileum test (electrically stimulated longitudinal muscle, inhibition of twitch height); format: cell-based; details: ratio of IC50 of reference compound Met^5-enkephalin to IC50 of test compound in the same preparation, averaged (N=4); reference given as 100
Protocol: Adult male guinea pigs (Charles River, Hartley strain) weighing 300-500 g. are decapitated, and the terminal ileum is exposed by reflecting the overlying cecum, severed at the ileocecal juncture, and removed while cutting the mesenteric attachments to avoid excessive traction on the tissue. The ileum (about 30 cm. in length) is transferred to a beaker containing warm modified Krebs-Henseleit solution (118 mM sodium chloride, 4.75 mM potassium chloride, 2.54 mM calcium chloride, 1.19 mM potassium dihydrogen phosphate, 1.2 mM magnesium sulfate, 25 mM sodium bicarbonate, 11 mM glucose, 20 μM choline chloride and 0.125 μM pyrilamine maleate). The terminal (aboral) portion (about 10 cm. in length) is discarded, and segments (3-4 cm. in length) are cut from the remainder and gently slid onto a glass rod (5-6 mm. in diameter) and arranged so that the mesenteric attachment is in a straight line. A cotton swab moistened in the solution is then carefully used to separate the longitudinal muscle from the underlying circular muscle. The longitudinal muscle and adhering myenteric plexus is then gently removed from the remaining tissue with forceps.
Strips of this prepared longitudinal muscle are mounted in a double-jacketed organ bath (5 ml.) under tension (1.0 g.), connected to isometric transducers (Grass FT .03), bathed in the modified Krebs-Henseleit solution described above, aerated with oxygen-carbon dioxide (95:5) and maintained at 37° C.
Stimulators (Grass S-44) are set to deliver repetitive monophasic square wave field stimulation (supramaximal voltage, 0.10 Hz., 0.25 msec. duration) through platinum ring electrodes at the top and bottom of the bath. Regular contractions of the muscle, which result from electrically-induced liberation of acetylcholine from postganglionic parasympathetic nerves, are recorded on a polygraph (Grass model 5). Following tissue equilibration (45-60 min.) and repeated washing (every 10 min.) an aqueous solution of a reference or test compound is added to the bath in a microliter volume (1.25-250 μl) and reductions in muscle twitch height are recorded. More compound can be added […] first washing the preparation.
From the results a half-maximal inhibitory concentration (IC50) value for the compound is computed by regression analysis of a linear plot of logarithm of concentration against percent of inhibition of twitch height (probits). The ratio of the IC50 value of a reference compound to that of a test compound tested in the same preparation is the molar potency ratio. Usually four preparations are tested simultaneously by the same person (N=4), and the resulting four molar potency ratios are averaged. […]

rat = details: relative to morphine, cited from earlier work
opiate receptor = details: rat brain membranes, relative to morphine; cited from earlier work
mouse vas deferens = mouse vas deferens test; cited from earlier work
guinea pig ileum = guinea pig ileum test; cited from earlier work

With `N[C@@H](Cc1ccc(O)cc1)C(=O)N1CCC[C@H]1C(=O)NCCc1ccccc1` [Example 1, L-tyrosyl-N-(2-phenylethyl)-L-prolinamide] (H-Tyr-Pro-NHPhenethyl) the “Average Molar Potency Ratio” value [1] was 117.

With `N[C@@H](Cc1ccc(O)cc1)C(=O)N1CCC[C@H]1C(=O)NCCCc1ccccc1` [Example 2, L-tyrosyl-N-(3-phenylpropyl)-L-prolinamide] the “Average Molar Potency Ratio” value [1] was 6.

With `CN(CCCc1ccccc1)C(=O)[C@@H]1CCCN1C(=O)[C@@H](N)Cc1ccc(O)cc1` [Example 3, L-tyrosyl-N-methyl-N-(3-phenylpropyl)-L-prolinamide] the “Average Molar Potency Ratio” value [1] was 9.

For `C[C@@H](NC(=O)[C@@H](N)Cc1ccc(O)cc1)C(N)=O` [H-Tyr-D-Ala-NH2], the “times less potent than morphine, tail flick test” value (rat; intravenously) is given as “greater than 10 times”, the “times less potent than morphine, tail flick test” value (rat; intraventricularly) is given as 200 times and the “times less affinity than morphine, opiate receptor binding” value (opiate receptor) is given as 830 times.

For `C[C@@H](NC(=O)[C@@H](N)Cc1ccc(O)cc1)C(=O)NCCNCCc1ccccc1` [HTyrD-AlaNH(CH2)2 NH(CH2)2 Phenyl], the “potency relative to Met-enkephalin” value (mouse vas deferens) is given as under 1% and the “potency relative to Met-enkephalin” value (guinea pig ileum) is given as under 1%.

For Met^5 -enkephalin [Met^5 --enkephalin], the “Average Molar Potency Ratio” value [1] was 100.
